Test results from article PMC6459903, “The enzymes OSC1 and CYP716A263 produce a high variety of triterpenoids in the latex of Taraxacum koksaghyz” (Scientific Reports, 2019).

Columns and labels:
Format in all cases: cell-based
TkLUP = molecular target: T1, TkLUP (Taraxacum kok-saghyz, UniProt A0A3B1EU92); assay: transient expression in N. benthamiana leaves, GC-MS; details: with Tkhmgrc1; endogenous 2,3-oxidosqualene; predominant product
T1 construct: gene Lup; full-length cDNA; transient expression in Nicotiana benthamiana leaves
T1 sequence (A0A3B1EU92 1-758): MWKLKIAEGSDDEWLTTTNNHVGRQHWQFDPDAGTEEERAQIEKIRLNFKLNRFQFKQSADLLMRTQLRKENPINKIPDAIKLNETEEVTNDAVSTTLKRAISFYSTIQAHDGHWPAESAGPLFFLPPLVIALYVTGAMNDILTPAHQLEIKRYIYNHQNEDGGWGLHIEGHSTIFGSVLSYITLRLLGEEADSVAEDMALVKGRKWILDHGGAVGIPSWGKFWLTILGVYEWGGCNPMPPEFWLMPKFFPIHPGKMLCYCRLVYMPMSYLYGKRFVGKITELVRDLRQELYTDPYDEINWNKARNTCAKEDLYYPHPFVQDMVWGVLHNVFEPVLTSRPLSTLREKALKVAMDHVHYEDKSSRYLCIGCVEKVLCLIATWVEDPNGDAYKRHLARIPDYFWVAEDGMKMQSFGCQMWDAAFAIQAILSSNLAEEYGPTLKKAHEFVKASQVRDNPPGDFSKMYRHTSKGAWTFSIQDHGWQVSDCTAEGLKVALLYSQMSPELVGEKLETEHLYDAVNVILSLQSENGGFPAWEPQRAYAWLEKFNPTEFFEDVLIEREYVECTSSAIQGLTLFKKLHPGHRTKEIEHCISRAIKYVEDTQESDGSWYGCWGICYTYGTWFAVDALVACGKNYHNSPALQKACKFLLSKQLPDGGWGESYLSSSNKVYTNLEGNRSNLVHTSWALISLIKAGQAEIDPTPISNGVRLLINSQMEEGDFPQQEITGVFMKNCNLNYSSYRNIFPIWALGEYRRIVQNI

CYP716A263 = molecular target: T2, CYP716A263 (Taraxacum kok-saghyz, UniProt A0A3S5GS06); assay: co-expression in N. benthamiana leaves, GC-MS; details: C-3 oxidation to lupenone; lupeol formed in situ by co-expressed TkLUP with Tkhmgrc1
T2 construct: full-length 473 residues (1,422 bp), from latex cDNA; transient expression in Nicotiana benthamiana leaves with host reductase

CYP716A263/AtR2 = molecular target: T3, CYP716A263/AtR2 (Taraxacum kok-saghyz, UniProt A0A3S5GS06); assay: co-expression in S. cerevisiae, GC-MS; details: C-3 oxidation to taraxasterone; taraxasterol formed in situ by co-expressed TkLUPN-TkOSC1C; AtR2 reductase
T3 construct: full-length P450, 473 residues, co-expressed with Arabidopsis thaliana reductase AtR2 in S. cerevisiae CEN.PK2-1C; with NADPH--cytochrome P450 reductase 2 (Arabidopsis thaliana)

TkOSC6 = molecular target: T4, TkOSC6 (Taraxacum kok-saghyz, UniProt A0A3S7RZ84); assay: expression in S. cerevisiae, GC-MS; details: endogenous 2,3-oxidosqualene as substrate; erg7 repressed by CuSO4; main product
T4 construct: gene OSC6; unmodified full-length protein; expressed in S. cerevisiae CEN.PK2-1C and N. benthamiana
T4 sequence (A0A3S7RZ84 1-758): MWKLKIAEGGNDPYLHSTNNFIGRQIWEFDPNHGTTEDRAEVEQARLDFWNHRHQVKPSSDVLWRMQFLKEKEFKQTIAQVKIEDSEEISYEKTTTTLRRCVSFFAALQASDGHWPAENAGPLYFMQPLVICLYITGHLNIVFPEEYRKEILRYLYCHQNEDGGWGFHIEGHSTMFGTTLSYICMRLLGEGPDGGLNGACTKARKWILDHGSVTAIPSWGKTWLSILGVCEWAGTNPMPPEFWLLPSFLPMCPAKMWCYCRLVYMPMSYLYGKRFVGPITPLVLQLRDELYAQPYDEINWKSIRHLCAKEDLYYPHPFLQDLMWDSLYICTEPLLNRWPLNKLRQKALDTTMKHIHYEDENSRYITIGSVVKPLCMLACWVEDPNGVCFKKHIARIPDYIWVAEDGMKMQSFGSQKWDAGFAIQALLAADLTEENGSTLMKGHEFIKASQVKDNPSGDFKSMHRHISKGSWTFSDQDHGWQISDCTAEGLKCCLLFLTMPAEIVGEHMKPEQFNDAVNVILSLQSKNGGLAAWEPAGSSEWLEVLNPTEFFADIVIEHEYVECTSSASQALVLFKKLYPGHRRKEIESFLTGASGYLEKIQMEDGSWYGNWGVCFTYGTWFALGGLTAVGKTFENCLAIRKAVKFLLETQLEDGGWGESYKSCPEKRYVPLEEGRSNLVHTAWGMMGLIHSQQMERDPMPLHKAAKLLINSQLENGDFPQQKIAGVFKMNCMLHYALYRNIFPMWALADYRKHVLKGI

T2 sequence (A0A3S5GS06 1-473): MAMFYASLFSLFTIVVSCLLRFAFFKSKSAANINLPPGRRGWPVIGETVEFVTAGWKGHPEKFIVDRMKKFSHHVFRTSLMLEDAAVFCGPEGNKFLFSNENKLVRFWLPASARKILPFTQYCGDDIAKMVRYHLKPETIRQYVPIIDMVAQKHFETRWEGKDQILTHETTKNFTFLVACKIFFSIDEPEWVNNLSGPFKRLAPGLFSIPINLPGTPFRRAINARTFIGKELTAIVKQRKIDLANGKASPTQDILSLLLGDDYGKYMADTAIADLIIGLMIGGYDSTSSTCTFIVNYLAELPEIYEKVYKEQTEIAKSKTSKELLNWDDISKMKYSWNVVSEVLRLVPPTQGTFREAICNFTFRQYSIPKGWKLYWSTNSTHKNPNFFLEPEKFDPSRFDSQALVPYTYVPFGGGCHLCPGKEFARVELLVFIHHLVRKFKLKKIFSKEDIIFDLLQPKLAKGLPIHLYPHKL
T3 sequence (A0A3S5GS06 1-473): as above
T3 sequence (Q9SUM3 whole entry partner): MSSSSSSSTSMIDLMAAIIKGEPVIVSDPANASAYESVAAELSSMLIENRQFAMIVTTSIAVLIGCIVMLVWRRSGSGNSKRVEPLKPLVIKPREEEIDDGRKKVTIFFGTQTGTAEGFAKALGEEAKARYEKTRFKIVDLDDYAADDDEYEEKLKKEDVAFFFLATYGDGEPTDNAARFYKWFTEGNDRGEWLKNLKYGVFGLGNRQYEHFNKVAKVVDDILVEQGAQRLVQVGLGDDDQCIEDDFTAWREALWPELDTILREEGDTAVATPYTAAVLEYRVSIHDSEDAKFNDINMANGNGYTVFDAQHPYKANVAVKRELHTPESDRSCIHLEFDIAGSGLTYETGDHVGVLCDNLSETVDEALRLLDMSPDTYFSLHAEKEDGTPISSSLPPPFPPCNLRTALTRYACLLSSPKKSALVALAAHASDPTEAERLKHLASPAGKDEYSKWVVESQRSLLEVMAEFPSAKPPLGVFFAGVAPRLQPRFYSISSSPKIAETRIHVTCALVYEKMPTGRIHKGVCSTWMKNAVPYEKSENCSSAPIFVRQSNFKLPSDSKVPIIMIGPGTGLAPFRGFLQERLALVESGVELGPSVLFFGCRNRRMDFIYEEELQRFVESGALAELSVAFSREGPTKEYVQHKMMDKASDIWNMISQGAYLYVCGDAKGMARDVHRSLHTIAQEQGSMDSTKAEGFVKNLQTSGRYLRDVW

C=C(C)[C@@H]1CC[C@]2(C)CC[C@]3(C)[C@H](CC[C@@H]4[C@@]5(C)CC[C@H](O)C(C)(C)[C@@H]5CC[C@]43C)[C@@H]12 [lupeol]
transient expression in N. benthamiana leaves, GC-MS (TkLUP): TkLUP in combination with Tkhmgrc1 led to the predominant production of lupeol
co-expression in N. benthamiana leaves, GC-MS (CYP716A263): CYP716A263 is capable of converting lupeol into lupenone and exhibits a C-3 oxidation activity

C=C1CC[C@]2(C)CC[C@]3(C)[C@H](CC[C@@H]4[C@@]5(C)CC[C@H](O)C(C)(C)[C@@H]5CC[C@]43C)[C@H]2[C@@H]1C [taraxasterol]
co-expression in S. cerevisiae, GC-MS (CYP716A263/AtR2): taraxasterol, as the most abundant product, was converted to taraxasterone

CC1(C)CC[C@]2(C)CC[C@]3(C)C(=CC[C@@H]4[C@@]5(C)CC[C@H](O)C(C)(C)[C@@H]5CC[C@]43C)[C@@H]2C1 [β-amyrin]
expression in S. cerevisiae, GC-MS (TkOSC6): TkOSC6 expression in yeast led to the identification of β-amyrin as main product
